In brackets after ≈: the same amount, converted by molar mass.

The first data set has as its system aqueous buffer solubility, pH 5.0/6.2/7.4. The data set can be described thus: compound solubility, pH 5.0, 6.2, 7.4 – biophysical, set 2, ADME assay (AID 624323). To be noted: measured here: solubility at pH 5.0; at 100 µM; stronger effect = higher value.
By solubility is commonly meant the concentration that dissolves in the medium under given conditions. `COc1ccc(N(C(=O)CCl)C(C(=O)NCCc2ccccc2)c2cccs2)cc1Cl` (configuration not stated) registered a solubility of 0.61 µg/mL (≈ 1.28 µM).

Regarding `Cc1ccc(C(=O)n2c3ccccc3c3ccccc32)cc1`, the solubility was below 0.01 µg/mL.

`O=c1c2ccccc2[se]n1-c1ccccc1` yielded a solubility of 5 µg/mL (≈ 18.2 µM).

As to `Cc1cc(C(=O)CN2C(=O)CCC2=O)c(C)n1Cc1ccccc1`, the solubility turned out to be 25.2 µg/mL (≈ 77.7 µM).

`Cc1ccc(NS(=O)(=O)c2ccc3c(c2)CCC(=O)N3)cc1C` showed a solubility of 26.2 µg/mL (≈ 79.3 µM).

Compound `Oc1cc(O)cc(/C=C/c2ccc(O)c(O)c2)c1` showed a solubility above 24 µg/mL.

For `c1ccc(CC2CCN(c3ncnc4sccc34)CC2)cc1`, the solubility is below 0.01 µg/mL.

As to `CN(C)C1=C(Cl)C(=O)N(c2ccc(Cl)c(Cl)c2)C1=O`, the solubility was 0.06 µg/mL (≈ 0.188 µM).

As to `O=C(c1ccccn1)N(Cc1cccs1)C1(C(=O)NC2CCCCC2)CCCCC1`, the solubility is 7.4 µg/mL (≈ 17.4 µM).

Consider `CSc1nc(-c2ccc(C)cc2)nc(C(Cl)Cl)n1`, for which the solubility was 0.02 µg/mL (≈ 0.0666 µM).

Compound `NC(=O)C1CCN(c2nc(-c3ccc(Br)cc3)cs2)CC1` came in with a solubility of 0.14 µg/mL (≈ 0.382 µM).

As for `O=[N+]([O-])c1ccc(CN2CCOCCOCCN(Cc3ccc([N+](=O)[O-])cc3)CCOCC2)cc1`, the solubility is above 48 µg/mL.

As for `Cc1ccnc(NC(=O)CCCOc2cc(=O)n(C)c3ccccc23)c1`, the solubility amounted to 19 µg/mL (≈ 54.1 µM).

`O=c1oc2c(O)c(O)cc3c(=O)oc4c(O)c(O)cc1c4c23`: the solubility stood at 7.9 µg/mL (≈ 26.1 µM).

`CCCN(CCC)CCNC(=O)C1CCN(Cc2nc(-c3ccc(Cl)cc3)oc2C)CC1` yielded a solubility above 46 µg/mL.

As to `O=C1NCCCc2c1oc1ccc(O)cc21`, the solubility is above 22 µg/mL.

`CCc1nnc(NC(=O)c2ccc(NS(=O)(=O)c3ccccc3)cc2)s1` came in with a solubility of 0.09 µg/mL (≈ 0.232 µM).

For `CCOc1ccc(-c2nc(-c3ccncc3)no2)cc1OCC`, the solubility is 1.1 µg/mL (≈ 3.53 µM).

Consider `Cc1cccc(-n2cnc3cc(C(=O)N4CCCCC4)ccc32)c1`, for which the solubility is above 32 µg/mL.

The data set is the same for the next values; noted with them: measured here: solubility at pH 6.2; at 100 µM; stronger effect = higher value.
In the case of `COc1ccc(C2CC(c3ccccc3)=NN2c2ccc(S(N)(=O)=O)cc2)cc1` (configuration not stated), the solubility came out at 0.04 µg/mL (≈ 0.0982 µM).

Take `O=C(O)c1ccc(N2C(=O)/C(=C/c3ccc(-c4ccc([N+](=O)[O-])cc4)o3)C=C2c2ccccc2)cc1`: the solubility was determined as 13.4 µg/mL (≈ 28 µM).

Regarding `C/C=C/Cn1c(SCCCc2ccccc2)nc2c1c(=O)[nH]c(=O)n2C`, the solubility was found to be 0.31 µg/mL (≈ 0.837 µM).

`CC(C)(C)OC(=O)NCCc1nnc(S(=O)(=O)Cc2ccc(Cl)cc2Cl)o1` yielded a solubility of 4.8 µg/mL (≈ 11 µM).

As to `CN(C)c1nc(N)nc(CSc2nnnn2-c2cccc3ccccc23)n1`, the solubility amounted to 1 µg/mL (≈ 2.64 µM).

`Cn1cnc([N+](=O)[O-])c1Sc1ncnc2nc[nH]c12` gave a solubility above 27 µg/mL.

In turn, `N#C/C(=C\c1ccc([N+](=O)[O-])o1)c1nc2ccccc2[nH]1` gave a solubility of 0.12 µg/mL (≈ 0.428 µM).

For the compound `CS(=O)(=O)c1ccc(C(=O)OCC(=O)NC23CC4CC(CC(C4)C2)C3)cc1[N+](=O)[O-]`, the solubility amounted to 2.5 µg/mL (≈ 5.73 µM).

`CC(C)C(=O)NC(c1ccco1)c1ccc2cccnc2c1O` (configuration not stated) showed a solubility of 2.7 µg/mL (≈ 8.7 µM).

`C=CCn1c(SCC(=O)c2ccc(O)c(O)c2)nnc1-c1ccccc1OC` registered a solubility of 5.3 µg/mL (≈ 13.3 µM).

Regarding `Cn1nnnc1Sc1ncnc2scc(-c3ccccc3)c12`, the solubility stood at 3.1 µg/mL (≈ 9.5 µM).

The compound `Cc1ccc(S(=O)(=O)n2c(N)nc3ccccc32)cc1` returned a solubility of 2.4 µg/mL (≈ 8.35 µM).

Regarding `Cc1cc(-c2nnc3n2CCCCC3)c(C)n1-c1ccccc1`, the solubility is above 30 µg/mL.

Turning to `CCCc1cc(C(=O)N(C2CCCCC2)C2CCCCC2)no1`, the solubility turned out to be 2 µg/mL (≈ 6.28 µM).

In the case of `COc1cccc(-c2nc(-c3ccc(NC(=O)Cc4ccccc4OC)cc3)no2)c1`, the solubility is 0.05 µg/mL (≈ 0.12 µM).

For the compound `CC[C@H]1CN2CCc3cc(OC)c(OC)cc3[C@@H]2C[C@@H]1C[C@H]1NCCc2cc(OC)c(OC)cc21`, the solubility is above 55 µg/mL.

`COc1ccc(OC)c(-c2nnc3n2N=C(c2ccc(OC)c(OC)c2)CS3)c1` had a solubility of 29.5 µg/mL (≈ 71.5 µM).

`Cc1cc(C)nc(-n2nc(C)c(Sc3ccc(F)cc3)c2N)n1` came in with a solubility of 8.6 µg/mL (≈ 26.1 µM).

Regarding `CCCn1ncc(CN2CCCC(C(=O)c3cccc(OC(C)C)c3)C2)c1C` (configuration not stated), the solubility was above 38 µg/mL.

Turning to `COc1ccc(N(C(=O)CCl)C(C(=O)NCCc2ccccc2)c2cccs2)cc1Cl` (configuration not stated), the solubility was 0.86 µg/mL (≈ 1.8 µM).

With `Cc1ccc(C(=O)n2c3ccccc3c3ccccc32)cc1`, the solubility is below 0.01 µg/mL.

The compound `O=c1c2ccccc2[se]n1-c1ccccc1` returned a solubility of 6 µg/mL (≈ 21.9 µM).

The compound `Cc1cc(C(=O)CN2C(=O)CCC2=O)c(C)n1Cc1ccccc1` came in with a solubility of 22.6 µg/mL (≈ 69.7 µM).

Regarding `Cc1ccc(NS(=O)(=O)c2ccc3c(c2)CCC(=O)N3)cc1C`, the solubility is above 33 µg/mL.

In turn, `Oc1cc(O)cc(/C=C/c2ccc(O)c(O)c2)c1` yielded a solubility above 24 µg/mL.

Compound `c1ccc(CC2CCN(c3ncnc4sccc34)CC2)cc1` displayed a solubility of 0.01 µg/mL (≈ 0.0323 µM).

In turn, `CN(C)C1=C(Cl)C(=O)N(c2ccc(Cl)c(Cl)c2)C1=O` returned a solubility of 0.12 µg/mL (≈ 0.375 µM).

For the compound `O=C(c1ccccn1)N(Cc1cccs1)C1(C(=O)NC2CCCCC2)CCCCC1`, the solubility stood at 15 µg/mL (≈ 35.2 µM).

The compound `CSc1nc(-c2ccc(C)cc2)nc(C(Cl)Cl)n1` registered a solubility of 0.01 µg/mL (≈ 0.0333 µM).

The compound `NC(=O)C1CCN(c2nc(-c3ccc(Br)cc3)cs2)CC1` came in with a solubility of 0.14 µg/mL (≈ 0.382 µM).

Consider `O=[N+]([O-])c1ccc(CN2CCOCCOCCN(Cc3ccc([N+](=O)[O-])cc3)CCOCC2)cc1`, for which the solubility is above 48 µg/mL.

Regarding `Cc1ccnc(NC(=O)CCCOc2cc(=O)n(C)c3ccccc23)c1`, the solubility is 9.3 µg/mL (≈ 26.5 µM).

The compound `O=c1oc2c(O)c(O)cc3c(=O)oc4c(O)c(O)cc1c4c23` displayed a solubility above 30 µg/mL.

`CCCN(CCC)CCNC(=O)C1CCN(Cc2nc(-c3ccc(Cl)cc3)oc2C)CC1` returned a solubility above 46 µg/mL.

As to `O=C1NCCCc2c1oc1ccc(O)cc21`, the solubility is above 22 µg/mL.

`CCc1nnc(NC(=O)c2ccc(NS(=O)(=O)c3ccccc3)cc2)s1` returned a solubility of 0.16 µg/mL (≈ 0.412 µM).

Regarding `CCOc1ccc(-c2nc(-c3ccncc3)no2)cc1OCC`, the solubility was 1.3 µg/mL (≈ 4.18 µM).

Turning to `Cc1cccc(-n2cnc3cc(C(=O)N4CCCCC4)ccc32)c1`, the solubility is above 32 µg/mL.
